Results published in ChEMBL document CHEMBL5104180, “Design, Synthesis, and Evaluation of New Sugar-Substituted Imidazole Derivatives as Selective c-MYC Transcription Repressors Targeting the Promoter G-Quadruplex” (J Med Chem, 2022).
Values belong to the molecule of their own block, whether it stands above or below them.

What was measured:
[1] = target: RNA; assay: Binding affinity to NRAS RNA mutant (unknown origin) assessed as binding constant by SPR analysis
[2] = Binding affinity to G-rich KRAS DNA (unknown origin) assessed as binding constant by SPR analysis
[3] = Binding affinity to G-rich HRAS DNA (unknown origin) assessed as binding constant by SPR analysis
[4] = test system: Quadruplex DNA; assay: Stabilization of c-MYC G4 quadruplex DNA Pu22 (unknown origin) assessed as change in melting temperature at 2 uM by CD spectroscopy; format: nucleic-acid assay
[5] = target: Quadruplex DNA; assay: Binding affinity to c-MYC G4 quadruplex DNA Pu22 (unknown origin) assessed as binding constant by SPR analysis; format: nucleic-acid assay
[6] = Binding affinity to G-rich NRAS RNA (unknown origin) assessed as binding constant by SPR analysis
[7] = Binding affinity to Hairpin DNA (unknown origin) assessed as binding constant by SPR analysis
[8] = Binding affinity to human G-rich Htg22 DNA assessed as binding constant by SPR analysis
[9] = target: Quadruplex DNA; assay: Binding affinity to c-MYC G4- quadruplex DNA Pu22 (unknown origin) assessed as binding constant by SPR analysis; format: nucleic-acid assay

Compound: CCn1c2ccccc2c2cc(-c3nc(-c4ccc(N5CCN(C)CC5)cc4)c(-c4ccc(N5CCN(C)CC5)cc4)n3-c3ccc(OCCOCCOC(C)=O)cc3)ccc21
Kd [1]: > 20 µM
Kd [2]: 10.2 µM
Kd [3]: 19.1 µM
ΔTm [4]: 21.2 °C
Kd [5]: > 20 µM
Kd [6]: > 20 µM
Kd [7]: > 20 µM
Kd [8]: > 20 µM
Kd [9]: 4 µM

Compound: CCn1c2ccccc2c2cc(-c3nc(-c4ccc(N5CCN(C)CC5)cc4)c(-c4ccc(N5CCN(C)CC5)cc4)n3-c3ccc(O)cc3)ccc21
ΔTm [4]: 14.5 °C

Compound: CCn1c2ccccc2c2cc(-c3nc(-c4ccc(N5CCN(C)CC5)cc4)c(-c4ccc(N5CCN(C)CC5)cc4)n3-c3ccc(OCCCOC(C)=O)cc3)ccc21
ΔTm [4]: 6.8 °C

Compound: CCn1c2ccccc2c2cc(-c3nc(-c4ccc(N5CCN(C)CC5)cc4)c(-c4ccc(N5CCN(C)CC5)cc4)n3-c3ccc(OCc4ccccc4)cc3)ccc21
ΔTm [4]: 7.6 °C

Compound: CCn1c2ccccc2c2cc(-c3nc(-c4ccc(N5CCN(C)CC5)cc4)c(-c4ccc(N5CCN(C)CC5)cc4)n3CCOCCO)ccc21
ΔTm [4]: 11.6 °C

Compound: COc1ccc(-n2c(-c3ccc4c(c3)c3ccccc3n4Cc3cn(CCOCCO)nn3)nc(-c3ccc(N4CCN(C)CC4)cc3)c2-c2ccc(N3CCN(C)CC3)cc2)cc1
ΔTm [4]: 13.4 °C

Compound: CCn1c2ccccc2c2cc(-c3nc(-c4ccc(N5CCN(C)CC5)cc4)c(-c4ccc(N5CCN(C)CC5)cc4)n3CCOCCO[C@@H]3O[C@H](CO)[C@@H](O)[C@H](O)[C@H]3O)ccc21 (single isomer, unassigned)
Kd [1]: > 20 µM
Kd [2]: 12.9 µM
Kd [3]: 13.7 µM
ΔTm [4]: 16.3 °C
Kd [5]: > 20 µM
Kd [6]: > 20 µM
Kd [7]: > 20 µM
Kd [8]: > 20 µM
Kd [9]: 3.5 µM

Compound: CCn1c2ccccc2c2cc(-c3nc(-c4ccc(N5CCN(C)CC5)cc4)c(-c4ccc(N5CCN(C)CC5)cc4)n3-c3ccc(OCCCOC4(C)O[C@H]5O[C@H](CO)[C@@H](O)[C@H](O)[C@H]5O4)cc3)ccc21 (single isomer, unassigned)
ΔTm [4]: 14.6 °C

Compound: CCn1c2ccccc2c2cc(-c3nc(-c4ccc(N5CCN(C)CC5)cc4)c(-c4ccc(N5CCN(C)CC5)cc4)n3-c3ccc(OCCCO[C@@H]4O[C@H](COC(C)=O)[C@@H](OC(C)=O)[C@H](OC(C)=O)[C@H]4OC(C)=O)cc3)ccc21 (single isomer, unassigned)
ΔTm [4]: 13.7 °C

Compound: CCn1c2ccccc2c2cc(-c3nc(-c4ccc(N5CCN(C)CC5)cc4)c(-c4ccc(N5CCN(C)CC5)cc4)n3-c3ccc(OCCCO[C@@H]4O[C@H](COC(C)=O)[C@H](OC(C)=O)[C@H](OC(C)=O)[C@H]4OC(C)=O)cc3)ccc21 (single isomer, unassigned)
ΔTm [4]: 10.9 °C

Compound: CCn1c2ccccc2c2cc(-c3nc(-c4ccc(N5CCN(C)CC5)cc4)c(-c4ccc(N5CCN(C)CC5)cc4)n3-c3ccc(OCCOCCO[C@@H]4O[C@H](COC(C)=O)[C@@H](OC(C)=O)[C@H](OC(C)=O)[C@H]4NC(=O)C(F)(F)F)cc3)ccc21 (single isomer, unassigned)
ΔTm [4]: 14 °C

Compound: CCn1c2ccccc2c2cc(-c3nc(-c4ccc(N5CCN(C)CC5)cc4)c(-c4ccc(N5CCN(C)CC5)cc4)n3-c3ccc(OCCOCCO[C@@H]4O[C@H](COC(C)=O)[C@@H](OC(C)=O)[C@H](OC(C)=O)[C@H]4OC(C)=O)cc3)ccc21 (single isomer, unassigned)
ΔTm [4]: 14.2 °C

Compound: CCn1c2ccccc2c2cc(-c3nc(-c4ccc(N5CCN(C)CC5)cc4)c(-c4ccc(N5CCN(C)CC5)cc4)n3-c3ccc(OCCOCCO[C@@H]4O[C@H](COC(C)=O)[C@H](OC(C)=O)[C@H](OC(C)=O)[C@H]4OC(C)=O)cc3)ccc21 (single isomer, unassigned)
ΔTm [4]: 12.8 °C

Compound: CCn1c2ccccc2c2cc(-c3nc(-c4ccc(N5CCN(C)CC5)cc4)c(-c4ccc(N5CCN(C)CC5)cc4)n3CCOCCO[C@H]3OC(CO)C(O)[C@@H](O)[C@@H]3O)ccc21 (single isomer, unassigned)
ΔTm [4]: 14.9 °C

Compound: CCn1c2ccccc2c2cc(-c3nc(-c4ccc(N5CCN(C)CC5)cc4)c(-c4ccc(N5CCN(C)CC5)cc4)n3CCO[C@@H]3O[C@H](CO)[C@@H](O)[C@H](O)[C@H]3O)ccc21 (single isomer, unassigned)
ΔTm [4]: 14.7 °C

Compound: CCn1c2ccccc2c2cc(-c3nc(-c4ccc(N5CCN(C)CC5)cc4)c(-c4ccc(N5CCN(C)CC5)cc4)n3CCO[C@@H]3O[C@H](CO)[C@H](O)[C@H](O)[C@H]3O)ccc21 (single isomer, unassigned)
ΔTm [4]: 11.3 °C

Compound: CCn1c2ccccc2c2cc(-c3nc(-c4ccc(N5CCN(C)CC5)cc4)c(-c4ccc(N5CCN(C)CC5)cc4)n3CCO[C@@H]3O[C@H](COC(C)=O)[C@H](OC(C)=O)[C@H](OC(C)=O)[C@H]3OC(C)=O)ccc21 (single isomer, unassigned)
ΔTm [4]: 9.3 °C

Compound: COc1ccc(-n2c(-c3ccc4c(c3)c3ccccc3n4Cc3cn([C@@H]4O[C@H](COC(C)=O)[C@H](OC(C)=O)[C@H](OC(C)=O)[C@H]4OC(C)=O)nn3)nc(-c3ccc(N4CCN(C)CC4)cc3)c2-c2ccc(N3CCN(C)CC3)cc2)cc1 (single isomer, unassigned)
ΔTm [4]: 13.3 °C

Second part, the molecule after the results:

Kd [1]: > 20 µM
Kd [2]: 5.6 µM
Kd [3]: 2.8 µM
ΔTm [4]: 18.7 °C
Kd [5]: > 20 µM
Kd [6]: 14.5 µM
Kd [7]: > 20 µM
Kd [8]: > 20 µM
Kd [9]: 1.2 µM
Compound: CCn1c2ccccc2c2cc(-c3nc(-c4ccc(N5CCN(C)CC5)cc4)c(-c4ccc(N5CCN(Cc6cn(CCOCCO)nn6)CC5)cc4)[nH]3)ccc21

Kd [1]: > 20 µM
Kd [2]: 12.5 µM
Kd [3]: 6.8 µM
ΔTm [4]: 15.5 °C
Kd [5]: > 20 µM
Kd [6]: 16.9 µM
Kd [7]: > 20 µM
Kd [8]: > 20 µM
Kd [9]: 1.8 µM
Compound: CCn1c2ccccc2c2cc(-c3nc(-c4ccc(N5CCN(C)CC5)cc4)c(-c4ccc(N5CCN(C)CC5)cc4)n3-c3ccc(O[C@@H]4O[C@H](CO)[C@@H](O)[C@H](O)[C@H]4O)cc3)ccc21

ΔTm [4]: 9.2 °C
Compound: CCn1c2ccccc2c2cc(-c3nc(-c4ccc(N5CCN(C)CC5)cc4)c(-c4ccc(N5CCN(C)CC5)cc4)n3-c3ccc(OCCCO)cc3)ccc21

ΔTm [4]: 11.1 °C
Compound: CCn1c2ccccc2c2cc(-c3nc(-c4ccc(N5CCN(C)CC5)cc4)c(-c4ccc(N5CCN(C)CC5)cc4)n3CCOC(C)=O)ccc21

ΔTm [4]: 10.4 °C
Compound: CCn1c2ccccc2c2cc(-c3nc(-c4ccc(N5CCN(C)CC5)cc4)c(-c4ccc(N5CCN(C)CC5)cc4)n3CCOCCOC(C)=O)ccc21

ΔTm [4]: 13.4 °C
Compound: COc1ccc(-n2c(-c3ccc4c(c3)c3ccccc3n4Cc3cn([C@@H]4O[C@H](COC(C)=O)[C@@H](OC(C)=O)[C@H](OC(C)=O)[C@H]4OC(C)=O)nn3)nc(-c3ccc(N4CCN(C)CC4)cc3)c2-c2ccc(N3CCN(C)CC3)cc2)cc1

Kd [1]: > 20 µM
Kd [2]: 2.3 µM
Kd [3]: 2.3 µM
ΔTm [4]: 21.7 °C
Kd [5]: > 20 µM
Kd [6]: 5.8 µM
Kd [7]: > 20 µM
Kd [8]: > 20 µM
Kd [9]: 0.8 µM
Compound: CCn1c2ccccc2c2cc(-c3nc(-c4ccc(N5CCN(C)CC5)cc4)c(-c4ccc(N5CCN(C)CC5)cc4)n3-c3ccc(OCCOCCO[C@@H]4O[C@H](CO)[C@@H](O)[C@H](O)[C@H]4N)cc3)ccc21 (single isomer, unassigned)

Kd [1]: > 20 µM
Kd [2]: 7 µM
Kd [3]: 3.3 µM
ΔTm [4]: 15.8 °C
Kd [5]: > 20 µM
Kd [6]: 11.8 µM
Kd [7]: > 20 µM
Kd [8]: > 20 µM
Kd [9]: 1.9 µM
Compound: CCn1c2ccccc2c2cc(-c3nc(-c4ccc(N5CCN(C)CC5)cc4)c(-c4ccc(N5CCN(Cc6cn([C@@H]7O[C@H](CO)[C@@H](O)[C@H](O)[C@H]7O)nn6)CC5)cc4)[nH]3)ccc21 (single isomer, unassigned)

ΔTm [4]: 10.7 °C
Compound: CCn1c2ccccc2c2cc(-c3nc(-c4ccc(N5CCN(C)CC5)cc4)c(-c4ccc(N5CCN(C)CC5)cc4)n3-c3ccc(O[C@@H]4O[C@H](COC(C)=O)[C@@H](OC(C)=O)[C@H](OC(C)=O)[C@H]4OC(C)=O)cc3)ccc21 (single isomer, unassigned)

ΔTm [4]: 11.4 °C
Compound: CCn1c2ccccc2c2cc(-c3nc(-c4ccc(N5CCN(C)CC5)cc4)c(-c4ccc(N5CCN(C)CC5)cc4)n3CCOCCO[C@@H]3O[C@H](COC(C)=O)[C@@H](OC(C)=O)[C@H](OC(C)=O)[C@H]3OC(C)=O)ccc21 (single isomer, unassigned)

ΔTm [4]: 10.3 °C
Compound: CCn1c2ccccc2c2cc(-c3nc(-c4ccc(N5CCN(C)CC5)cc4)c(-c4ccc(N5CCN(C)CC5)cc4)n3CCOCCO[C@@H]3O[C@H](COC(C)=O)[C@H](OC(C)=O)[C@H](OC(C)=O)[C@H]3OC(C)=O)ccc21 (single isomer, unassigned)

ΔTm [4]: 7.1 °C
Compound: CCn1c2ccccc2c2cc(-c3nc(-c4ccc(N5CCN(C)CC5)cc4)c(-c4ccc(N5CCN(C)CC5)cc4)n3CCO[C@@H]3O[C@H](COC(C)=O)[C@@H](OC(C)=O)[C@H](OC(C)=O)[C@H]3OC(C)=O)ccc21 (single isomer, unassigned)

ΔTm [4]: 15.4 °C
Compound: CCn1c2ccccc2c2cc(-c3nc(-c4ccc(N5CCN(C)CC5)cc4)c(-c4ccc(N5CCN(Cc6cn([C@@H]7O[C@H](COC(C)=O)[C@@H](OC(C)=O)[C@H](OC(C)=O)[C@H]7OC(C)=O)nn6)CC5)cc4)[nH]3)ccc21 (single isomer, unassigned)

ΔTm [4]: 15.1 °C
Compound: CCn1c2ccccc2c2cc(-c3nc(-c4ccc(N5CCN(C)CC5)cc4)c(-c4ccc(N5CCN(Cc6cn([C@@H]7O[C@H](COC(C)=O)[C@H](OC(C)=O)[C@H](OC(C)=O)[C@H]7OC(C)=O)nn6)CC5)cc4)[nH]3)ccc21 (single isomer, unassigned)

ΔTm [4]: 10.3 °C
Compound: COc1ccc(-n2c(-c3ccc4c(c3)c3ccccc3n4Cc3cn([C@@H]4O[C@H](CO)[C@@H](O)[C@H](O)[C@H]4O)nn3)nc(-c3ccc(N4CCN(C)CC4)cc3)c2-c2ccc(N3CCN(C)CC3)cc2)cc1 (single isomer, unassigned)

ΔTm [4]: 12.4 °C
Compound: COc1ccc(-n2c(-c3ccc4c(c3)c3ccccc3n4Cc3cn([C@@H]4O[C@H](CO)[C@H](O)[C@H](O)[C@H]4O)nn3)nc(-c3ccc(N4CCN(C)CC4)cc3)c2-c2ccc(N3CCN(C)CC3)cc2)cc1 (single isomer, unassigned)
